Laboratory results as given in US4442093A, “Method for administering 24,25-dihydroxycholecalciferol to persons suffering from hypercalcemia” (Kureha Kagaku Kogyo Kabushiki Kaisha, priority 1981, dated 1984).
No end group written: not given here.

Columns and labels:
calcium level in serum [1] = experiment: Prevention of hypercalcemia in rats administered with 1-α-(OH)-D3 (Example 4); type: in vivo, male Wistar rats; conditions: 1-α-(OH)-D3 10 µg/kg i.p. alone
Source text: In the present example, it is shown that 24R,25-(OH)2 -D3 has a function of preventing the occurrence of hypercalcemia on rats administered with 1-α-hydroxycholecalciferol (hereinafter referred to as 1-α-(OH)-D3).
Six subgroups of male Wistar rats of 130±30 g of body weight were subjected to the test while dividing the rats into 3 groups, each group consisting of 2 subgroups and each subgroup consisting of 5 animals. To the rats of the first group, after fasting for a night, an ethanolic solution of 1-α-(OH)-D3 was intraperitoneally administered at a dose rate of 10 micrograms of 1-α-(OH)-D3 /kg body weight. To the rats of the second group, a solution of 24R,25-(OH)2 -D3 in the triglyceride ester used in Example 1 was orally administered at a dose rate of 100 micrograms/kg body weight simultaneously with the same administration of 1-α-(OH)-D3 as in the rats of the first group.
The third group of the rats was used for control only with the oral administration of the triglyceride ester used in Example 1.

thymus = experiment: Weight ratio of thymus to body and number of thymocytes in rats given puromycin aminonucleoside (Example 11); type: in vivo, male JCL-Wistar rats; conditions: 100 µg/kg/day oral 12 days with puromycin aminonucleoside 15 mg/kg s.c.
Description: Thirty-two male JCL-Wistar rats in tenth week after birth were used in the present test while keeping them in a room at 21±1° C. and 60±5% RH with solid diet (CE 2) and water taken ad lib.
They were divided equally into 4 groups (one group consisting of 8 animals), their treatments in the test being as follows:
subcutaneous injection of puromycin aminonucleoside as in the second group and oral administration of 24R,25-(OH)2 -D3 dissolved in Panacete 810 once a day at a daily dose rate of 100 micrograms/kg for continuous 12 days.
subcutaneous injection of puromycin aminonucleoside as in the second group and oral administration of 24S,25-(OH)2 -D3 dissolved in Panacete 810 once a day at a daily dose rate of 100 micrograms/kg for continuous 12 days.
After uniformly loosing the thymus in phosphate buffer solution with a forcets and fully pipetting, the mixture was filtered through a stainless steel mesh (Tylar standard #200) and the filtrate containing the thymic cells was stained with Turk's solution. The thus stained specimen was subjected to counting under a microscope.

thymic cells = experiment: Pattern of the size of thymic cells by FACS (Example 12); type: in vivo, rats; conditions: 100 µg/kg/day oral 12 days with puromycin aminonucleoside
Description: After feeding the rats (the same number and the same grouping) of the same strain and treating them in the same manner as in Example 11, their thymus was resected, and an analysis of the pattern of the size of the thymic cells was carried out while using Fluorescence Activated Cell Sorter (FACS II, made by Becton-Dickinson Co.) as follows:
After loosing the resected thymus in phosphate buffer solution sufficiently with a pincette, pipetting well and passing the mixture through a standard #200 Tyler stainless steel mesh, the filtrate was treated with an aqueous 0.83% by weight ammonium chloride buffer solution containing tris-hydroxyaminomethane to carry out hemolysis of the erythrocytes intermingled therein followed by three times of washing with the phosphate buffer solution. After adjusting the concentration of the thus obtained thymic cell to 5×10^6 cells/ml with the addition of the phosphate buffer solution, the abovementioned analysis was carried out. The ratio of the number of living thymic cells to the total number of the thus obtained thymic cells was confirmed to be higher than 95% after staining with trypan blue and counting under microscope.

gastric ulcer = experiment: Prevention of gastric ulcer due to pyloric ligation (Example 9); type: in vivo, male Wistar rats; conditions: 200 µg/kg i.p. once after pyloric ligation, 15 h
Description: Twenty male Wistar rats of average body weight of 250 g were divided equally into two groups, and used in the following test:
After 36 hour fasting, all the rats were subjected to pyloric ligation, and the rats of the first group were administered with 2 ml/kg of Panacete®810 (triglyceride ester of C8 and C10 -fatty acid, made by Nippon Oil & Fats Co., Ltd.) containing 0.2% by weight of ethanol intraperitoneally once just after ligation. The rats of the second group were administered with 24R,25-(OH)2 -D3 dissolved in Panacete®810 containing 0.2% by weight of ethanol intraperitoneally at a dose rate of 200 micrograms/kg body weight once just after ligation. After 15 hours of administration, all the rats were subjected to gastrectomy, and the presence or absence of the gastroparietal ulcer was examined on all the resected stomach.
As a result, the occurrence of gastric ulcer was found on 9 rats of 10 rats of the first group, and on 2 rats of 10 rats of the second group.
In a similar test, 24S,25-(OH)2 -D3 was used instead of 24R,25-(OH)2 -D3 to examine its effect in preventing the occurrence of gastric ulcer due to pyloric ligation. As a result, the occurrence of gastric ulcer was recognized on 3 rats of 10 rats of the group similarly treated to those of the second group.

[2] = system: mononucleates (lymphocytes) of peripheral blood; experiment: Blastoid-transformation of rat lymphocytes in peripheral blood, 3H-TdR uptake (Example 13); type: in vivo
Description: The effect of the present compound on the blastoid-transformation of rat lymphocytes in the peripheral blood was examined as follows: After mixing each of the blood specimens taken from the respective rats of the four groups in Example 11 added with heparin and RPMI-1640 culture medium at a weight ratio of 1:1, the mixture was added to Ficoll-Paque solution, and the thus obtained mixture was subjected to centrifugal separation at 400 G for 20 min to collect the layer of mononucleates. After washing the thus collected mononucleates three times with PRMI-1640 culture medium (in a liquid state), the washed mononucleates were suspended into RPMI-1640 culture medium added with 10% by weight of calf serum to be in concentration of 1.5×10^6 cells/ml. Hundred microliters of the thus prepared suspension was placed in the pit of Pharcon microtest II plate, and after adding a substance promoting cell division (hereinafter referred to as mitogen) and RPMI-1640 culture medium added with 10% by weight of calf serum to the thus placed suspension to make the total volume 200 microliters, the thus prepared mixture was incubated for 72 hours under a gas (a 95:5 by volume mixture of air and carbon dioxide saturated with moisture) flow at 37° C. ^3 H-methylthymidine of specific activity of 5 Ci/mmol was added to the mixture during incubation at the time 24 hours before the incubation was over in an amount corresponding to 0.5 micro Ci. After the incubation was over, the cells in the culture were collected by filtering the cultured mixture, and the amount of radioactive isotope uptaken into the cells was determined by a liquid scintillation counter. For reference, the mitogen used in the present test is concanavalin A for T-cell or lipopolysaccharide for B-cell.

[3] = system: ulcer found on the duodenum; experiment: Healing of acetic acid induced duodenal ulcer (Example 10); type: in vivo, male rats; conditions: 20 µg/kg/day oral, 10 days
Description: Fourty five male rats of body weight of 240 to 260 g were equally divided into three groups, each consisting of 15 animals, and they were subjected to an operation following the method of Okabe et al. (refer to Amer. J. Dig. Dia., 16, 277, 1971), in which under anesthesia by ether, a circular frame made of a metal was placed on the serosa 5 to 7 mm from the pylorus and 0.06 ml of gracial acetic acid was poured onto the round part within the frame and after 30 sec, the acetic liquid was removed with the frame.
The thus operated rats of the first group were administered orally with a suspension of […] of 24R,25-(OH)2 -D3 in Panacete®810 containing 0.2% by weight of ethanol once a day for continuous 10 days from the third day of the operation at a daily dose rate of 20 micrograms of 24R,25-(OH)2 -D3 /kg. To the thus operated rats of the second group (control), only Panacete®810 was orally administered at a daily dose rate of 2 ml/kg for continuous 10 days.
The thus operated rats of the third group were used in the comparative test. Namely, they were treated in the same manner as those of the first group except for administration of gefarnate (3,7-dimethyl-2,6-octadienyl-5,9,13-trimethyl-4,8,12-tetradecatrienoate) at a daily dose rate of 20 microgram/kg body weight in stead of 24R,25-(OH)2 -D3 in the first group.
After finishing the final administration, all the rats were sacrificed by ether and their duodenum was taken out for autopsy. The length and the width of the ulcer found on the duodenum were measured, and their product with a unit of mm^2 was taken and named as the ulcer coefficient. The rate of healing of the ulcer was calculated by the following formula: [formula] wherein C is the ulcer coefficient of control and U is the ulcer coefficient of the group to which the present compound was administered.

calcium level in serum [4] = experiment: Serum calcium in rats made hypercalcemic with Vitamin D3 (Example 1); type: in vivo, male Wistar rats; conditions: for Calcium level in serum: 24R 100 µg/kg oral, calcitonin 4 MRCU/kg s.c.
Description: To 16 subgroups of male Wistar rats of body weight of 150±40 g (one subgroup consisting of 5 rats), a solution of Vitamin D3 dissolved in corn oil at 600 micrograms/ml was orally administered once a day for continuous 4 days at a daily dose rate of 0.5 ml/100 g body weight to prepare the rats artifically suffering from hypercalcemia. After one day's fasting from the final administration of Vitamin D3, the calcium level in the serum of each rat of the first subgroup was on the average 13.5±0.4 mg/dl. The remaining 15 subgroups of the rats were divided into 3 groups each consisting of 5 subgroups and subjected to the following tests.
To the rats of the second group, a solution of porcine calcitonin in a physiological saline solution containing 4% by weight of gelatin was subcutaneously injected at a dose rate of 4 MRCU/kg body weight instead of the solution of 24R,25-(OH)2 -D3 and they were treated as those of the first group.
To the rats of the third group, only the same triglyceride ester as in the first group was orally administered, and they are treated in the same manner as in the first group.
The calcium level of the respective sera of the thus collected blood was determined by OCPC method (Orthocresol Phthalein Complexone method) and shown in Table 1.

[5] = system: inorganic phosphate level in serum; conditions: after its administration; cited from earlier work
[6] = 100 µg/kg/day oral 12 days with puromycin aminonucleoside

Compound: C=C1/C(=C\C=C2/CCC[C@]3(C)[C@@H]([C@H](C)CCCC(C)C)CC[C@@H]23)C[C@@H](O)C[C@@H]1O [1-α-(OH)--D3, 1-α-hydroxycholecalciferol, reference compound]
- Calcium level in serum (calcium level in serum [1]; after 10 hours): 13.4 ± 0.6 mg/dL
- Calcium level in serum (calcium level in serum [1]; after 18 hours): 14.5 ± 0.5 mg/dL

Compound: C=C1CC[C@H](O)C/C1=C/C=C1\CCC[C@]2(C)[C@@H]([C@H](C)CC[C@H](O)C(C)(C)O)CC[C@@H]12 [24S,25-(OH)2 -D3]
- Number of thymocytes (thymus): (30 ± 4.5) × 10^7
- number ratio of cells a little larger than normal cell to total thymic cells (thymic cells): the same as that of the control group
- occurrence of gastric ulcer (gastric ulcer): 3 rats of 10 rats
- Uptake of 3H-TdR in presence of Concanavalin A [2, 6]: 3582 ± 362 cpm
- Uptake of 3H-TdR in presence of Lipopolysaccharide [2, 6]: 3126 ± 351 cpm
- Number of mononucleate (ratio, first group = 1.00) ([2]; po, 0.1 mg/kg, 288 h): 0.58 ± 0.15

Compound: CC(C)=CCCC(C)=CCCC(C)=CCCC(=O)OCC=C(C)CCC=C(C)C [gefarnate, 3,7-dimethyl-2,6-octadienyl-5,9,13-trimethyl-4,8,12-tetradecatrienoate, reference compound]
- ulcer coefficient [3]: 7.5 mm^2
- rate of ulcer healing ([3]; vs control): 0%

Compound: calcitonin: porcine calcitonin in physiological saline solution containing 4% by weight of gelatin (CSNLSTCVLSAYWRNLNNFHRFSGMGFGPETP; ends and bridges not checked; cysteine pairing not given here; UniProt P01259 1-32, looked up)
- effect on raised serum calcium after 2 hours (calcium level in serum [4]; 4 MRCU/kg s.c.): its effect was not recognized after 2 hours of its administration
- Calcium level in serum (calcium level in serum [4]; 2 h after administration): 10.8 ± 0.5 mg/dL
- Calcium level in serum (calcium level in serum [4]; 5 h after administration): 13.0 ± 0.4 mg/dL
- Calcium level in serum (calcium level in serum [4]; 8 h after administration): 13.4 ± 0.4 mg/dL
- Calcium level in serum (calcium level in serum [4]; 12 h after administration): 13.9 ± 0.5 mg/dL
- Calcium level in serum (calcium level in serum [4]; 24 h after administration): 13.4 ± 0.4 mg/dL
- duration of strong reduction of serum inorganic phosphate level [5]: 2 to 3 h
